From patent US9394298B2, “Pyrroloquinoline quinone tetraalkali salt and crystal thereof, methods for producing these, and composition” (Mitsubishi Gas Chemical Company, Inc., priority 2012, dated 2016)
Structures can show the parent of a compound that is named as a salt. Where two headings read alike, the source gives them in different places.

Columns and labels:
Format in all cases: physicochemical
[1] = Test of the dissolution speed; settings: 1 mg salt in 2 mL water; for Absorbance After 1 min / Absorbance After 30 min: absorbance at 450 nm, fully dissolved = 100
Description: 1 mg of each PQQ salt shown in Table 7 was added to an acryl-made absorbance measurement cell, and 2 mL of water was added thereto and the absorbance at 450 nm was measured.

[2] = Test of the reactivity with ascorbic acid; settings: for State of the solution after adding ascorbic acid, after 2 hours / State of the solution after adding ascorbic acid, after 1 day: 1 g/L PQQ salt in water, 1 mL + 0.5 mL of 100 g/L ascorbic acid aqueous solution
Description: Each PQQ salt shown in Table 5 was dissolved in water so as to become 1 g/L. 0.5 mL of a 100 g/L ascorbic acid aqueous solution was added to 1 mL of the solution, and its states after 2 hours, after 1 day and after 2 days were observed.

Test of the solubility = settings: for Solubility Ratio: ratio to Comp. Ex. 1 (Na2PQQ = 1); for Solubility: room temperature of 23° C., calculated from absorbance at 260 nm
Description: 50 mg of each PQQ salt shown in Table 6 was added to 0.5 mL of water so as to become supersaturated. Here, in the case where a PQQ salt was completely dissolved in this concentration, the amount of water was reduced. Thereafter, an ultrasonic wave was applied on the solution at room temperature of 23° C. The solution was subjected to a centrifugal separator; and the supernatant was subjected to a UV measurement by diluting it using a phosphoric acid buffer (pH: 7.4, manufactured by Gibco Corp.) so that the absorbance at 260 nm became in the range of 0 to 1. The solubility was calculated from the absorption.

[3] = Stability in alkalinity, from the liquid chromatography chart; settings: solid obtained from alkaline solution
Description: PQQ was identified using the following apparatus.
Apparatus: a high performance liquid chromatography system, Lc-20A, manufactured by Shimadzu Corp.
Column: YMC-Pack ODS-Tms (5 μm), 150×4.6 mm I.D.
Measurement temperature: 40° C.
Detection: absorbance at 260 nm

Row | Structure (SMILES) | Absorbance After 1 min [1] | Absorbance After 30 min [1] | State of the solution after adding ascorbic acid, after 2 hours [2] | State of the solution after adding ascorbic acid, after 1 day [2] | Solubility Ratio (Test of the solubility) | Solubility (Test of the solubility; water) | State of the solution after adding ascorbic acid, after 2 hours ([2]; Trisodium Salt) | State of the solution after adding ascorbic acid, after 1 day ([2]; Trisodium Salt) | Dissolution speed, in words [1] | Color change with ascorbic acid in a long-term observation [2] | Solubility (Test of the solubility; thermodynamic from solid, water, read-out: Solubility) | Decomposed substances / stability in the alkalinity [3] | Solubility, in words (Test of the solubility; water, 23° C.)
1 | O=C([O-])c1cc(C(=O)[O-])c2c(n1)C(=O)C(=O)c1cc(C(=O)O)[nH]c1-2.[Na+].[Na+] [Comp. Ex. 1, PQQ Disodium Salt, reference compound] | 41 | 48 | brown deposit | brown deposit | 1 | 7.99 mM |  |  |  |  |  |  | 
2 | O=C(O)c1cc(C(=O)O)c2c(n1)C(=O)C(=O)c1cc(C(=O)O)[nH]c1-2 [Comp. Ex. 2, PQQ Trisodium Salt, reference compound] |  |  |  |  | 3.8 | 30.4 mM | brown deposit | brown deposit |  |  |  |  | 
3 | O=C(O)c1cc(C(=O)O)c2c(n1)C(=O)C(=O)c1cc(C(=O)O)[nH]c1-2 [Example 1, PQQ Tetrasodium Salt] | 88 | 92 | red solution | red solution | 58 |  |  |  | higher dissolution speed than the PQQ disodium salt | hardly generated color change | 463 mM |  | 
4 | O=C(O)c1cc(C(=O)O)c2c(n1)C(=O)C(=O)c1cc(C(=O)O)[nH]c1-2.[Li].[Li].[Li].[Li] [Example 5, PQQ Tetralithium Salt] |  |  | red solution | red solution | 82 | 655 mM |  |  |  |  |  | no decomposed substances and was stable even in the alkalinity | more easily dissolved than the PQQ tetrasodium salt
5 | O=C(O)c1cc(C(=O)O)c2c(n1)C(=O)C(=O)c1cc(C(=O)O)[nH]c1-2.[Li].[Li].[Na].[Na] [Example 6, PQQ Disodium Dilithium Salt] |  |  | red solution | red solution | 11 | 89 mM |  |  |  |  |  | no decomposed substances and was stable even in the alkalinity | 
6 | O=C(O)c1cc(C(=O)O)c2c(n1)C(=O)C(=O)c1cc(C(=O)O)[nH]c1-2.[K].[K].[K].[K] [Example 7, PQQ tetrapotassium salt] | 71 | 85 | red solution | red solution | 10.5 | 84 mM |  |  |  | hardly generated color change |  | no decomposed substances and was stable even in the alkalinity | 
